Laboratory results as given in publication PMC7394005, “Assessing the Selectivity of FXR, LXRs, CAR, and RORγ Pharmaceutical Ligands With Reporter Cell Lines” (Frontiers in Pharmacology, 2020).
Like-named read-outs stand apart in the source and are kept apart here.

Key:
Assay type in all cases: cell-based
[1] = target: T1, human CAR (+ APYLT) (Homo sapiens, UniProt Q14994, INS270APYLT); test: HG5LN GAL4-CAR (+APYLT) reporter cell line, agonist mode; settings: for EC50: HG5LN CAR + APYLT cells, tested alone, NE = No effect
T1 construct: CAR (M76-S348); expressed in transfected cells; host or cells: HG5LN (HeLa cells carrying the (GAL4RE)5-βGlob-Luc-SVNeo reporter)
T1 sequence (Q14994 47-324 isoform Q14994-6): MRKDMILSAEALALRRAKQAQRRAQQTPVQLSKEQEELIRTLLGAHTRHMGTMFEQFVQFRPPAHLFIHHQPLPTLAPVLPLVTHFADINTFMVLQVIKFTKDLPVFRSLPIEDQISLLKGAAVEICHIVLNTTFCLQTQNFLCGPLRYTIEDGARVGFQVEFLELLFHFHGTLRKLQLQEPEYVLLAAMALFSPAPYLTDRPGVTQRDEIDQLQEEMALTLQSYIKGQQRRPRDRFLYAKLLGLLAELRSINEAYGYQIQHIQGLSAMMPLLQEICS
Excerpt: (§1) To construct GAL4-NR chimeras, individual LBDs of human FXR (R193-Q486), LXRα (A187-E447), LXRβ (G199-E461), CAR (M76-S348), and RORγ (S97-K518) were amplified by PCR with primers containing XhoI and SacI restriction sites (FXR), XhoI and BamHI (LXRs, CAR, RORγ) and inserted in pSG5-GAL4(DBD)-puromycin plasmid. To construct GAL4-CAR (+ APYLT) (M76-S353), the five amino acids APYLT were inserted by overlap extension PCR between amino acids P270 and D271 of CAR.
(§2) To characterize the specificity of chemicals for human FXR, LXRα, LXRβ, CAR and RORγ, we established in a similar manner HG5LN FXR, LXRα, LXRβ, CAR WT, CAR (APYLT) and RORγ reporter cell lines. […] These cells were stably transfected by pSG5-GAL4 (DBD)-NRs (LBD)-puromycin plasmid and selected in presence of 0.5 µg/ml puromycin. […] From each HG5LN NR cells, 5 to 10 clones were chosen for their ligand inducibility of luciferase expression. […] The most inducible clones were expanded and rechecked for inducibility and aliquots were frozen at different passages. One clone per receptor was maintained in culture and used for ligand screening. HG5LN cells were cultured in Dulbecco’s modified Eagle’s medium (DMEM): Nutrient Mixture F-12 (DMEM/F-12) containing phenol red and 1 g/l glucose and supplemented with 5% fetal bovine serum, 100 units/ml of penicillin, 100 µg/ml of streptomycin and 1 mg/ml geneticin, in 5% CO2 humidified atmosphere at 37°C. Stably transfected cell lines derived from HG5LN cells were cultured in the same culture medium supplemented with 0.5 µg/ml puromycin.
(§3) Individual reporter cell lines were seeded at a density of 40,000 cells per well in 96-well white opaque tissue culture plates (Greiner CellStar) in Dulbecco’s Modified Eagle Medium: Nutrient Mixture F-12 (DMEM/F-12) without phenol red and 1 g/l glucose and supplemented with 5% stripped fetal bovine serum, 100 units/ml of penicillin, 100 µg/ml of streptomycin (test medium). Chemicals to be tested were added 24h later, and cells were incubated at 37°C for 16h. Experiments were performed in quadruplicates. At the end of the incubation period, culture medium was replaced with test medium containing 0.3 mM luciferin solution. Luciferase activity was measured for 2s in intact living cells after 10 min stabilization using a Micro Beta Wallac luminometer (PerkinElmer). EC50 values were calculated using GraphPad Prism (GraphPad Software Inc).
(§4) Chemicals tested for agonism on FXR, LXRs, CAR (+ APYLT), PXR, and antagonism on CAR and RORγ were tested alone, without addition of any other ligand.
(§5) In the transactivation assay, each compound was tested at various concentrations in three independent experiments at least. For each experiment, tests were performed in quadruplicates for each concentration, and data are expressed by means values with standard deviations. Individual agonist dose–response curves, in the absence and presence of antagonist, were fitted using the sigmoid dose-response function of a graphics and statistics software program (GraphPad Prism, version 5.0). EC50 (effective concentration for half-maximal luciferase activity) and IC50 (half-maximal inhibitory concentration) values were calculated from equations used to fit the data in this graphic software. Transactivation data are presented as EC50 and IC50 values for each compound tested. To analyze significances, we compared individual compound treatments with controls using one-way analysis of variance (ANOVA) with the help of GraphPad Prism software.

[2] = target: T2, human CAR WT (Homo sapiens, UniProt Q14994); test: HG5LN GAL4-CAR WT reporter cell line, inhibition of constitutive activity; settings: for IC50: inhibition of constitutive activity; for remaining activity at 10 µM: HG5LN, read-out: CAR WT % min act
T2 construct: CAR (M76-S348); expressed in transfected cells; host or cells: HG5LN (HeLa cells carrying the (GAL4RE)5-βGlob-Luc-SVNeo reporter)
T2 sequence (Q14994 76-348 isoform Q14994-2): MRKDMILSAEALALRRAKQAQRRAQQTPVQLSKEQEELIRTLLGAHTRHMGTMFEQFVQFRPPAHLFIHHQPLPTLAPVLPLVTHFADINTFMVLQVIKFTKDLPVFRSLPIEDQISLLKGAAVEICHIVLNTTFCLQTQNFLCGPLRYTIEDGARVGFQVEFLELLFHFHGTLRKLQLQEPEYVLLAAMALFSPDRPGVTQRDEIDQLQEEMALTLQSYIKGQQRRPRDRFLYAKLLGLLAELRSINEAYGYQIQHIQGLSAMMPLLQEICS
Excerpt: as §1, §2, §3, §4, §5

[3] = target: T3, human RORγ (Homo sapiens, UniProt P51449); test: HG5LN GAL4-RORγ reporter cell line, agonist mode in presence of SR2211; settings: in presence of SR2211 1 mM, NE = No effect; for EC50: read-out: RORγ (SR2211 1 mM) EC50
T3 construct: RORγ (S97-K518); expressed in transfected cells; host or cells: HG5LN (HeLa cells carrying the (GAL4RE)5-βGlob-Luc-SVNeo reporter)
T3 sequence (P51449 97-518): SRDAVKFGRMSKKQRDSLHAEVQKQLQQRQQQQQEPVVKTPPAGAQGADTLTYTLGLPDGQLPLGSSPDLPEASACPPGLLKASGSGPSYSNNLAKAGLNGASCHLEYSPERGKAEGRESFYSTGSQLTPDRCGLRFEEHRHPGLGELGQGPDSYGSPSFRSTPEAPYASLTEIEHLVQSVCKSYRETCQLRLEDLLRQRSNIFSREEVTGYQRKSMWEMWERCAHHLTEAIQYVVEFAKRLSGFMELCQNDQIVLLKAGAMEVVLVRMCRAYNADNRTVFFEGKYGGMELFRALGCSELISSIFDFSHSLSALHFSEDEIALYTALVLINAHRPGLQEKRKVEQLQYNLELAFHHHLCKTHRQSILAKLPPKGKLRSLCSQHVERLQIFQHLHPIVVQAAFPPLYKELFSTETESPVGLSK
Excerpt: as §1, §2, §3, §4, §5

[4] = tested alone, constitutive activity = 100%, at 10^-5 M (10^-6 M *, 3 10^-6 M **), NE = No effect

| Molecule | EC50 [1] [µM] | IC50 ([2]; tested alone, NE = No effect) [µM] | CAR WT % min act [2, 4] [%] | EC50 [3] [µM] | Emax at 10 µM ([1]; HG5LN, read-out: CAR (APYLT) % max act) [%] | remaining activity at 10 µM [2, 4] [%] | remaining activity at 10 µM [2] [%] | RORγ (SR2211 1 mM) % max act ([3]; 100% = constitutive activity, DMSO 56 ± 5, at 10^-5 M (10^-6 M *, 3 10^-6 M **)) [%] |
| --- | --- | --- | --- | --- | --- | --- | --- | --- |
| CCOC(=O)Nc1ccc2c(c1)N(C(=O)CN(CC)CC)c1ccccc1CC2 [CINPA1] | > 10 | 0.251 ± 0.015 | 19 | > 10 | – | – | – | – |
| Clc1ccc(-c2nc3sccn3c2/C=N/OCc2ccc(Cl)c(Cl)c2)cc1 [CITCO] | – | – | – | > 10 | – | – | – | – |
| Clc1ccccc1C(c1ccccc1)(c1ccccc1)n1ccnc1 [Clotrimazole, clotrimazole] | – | – | – | > 10 | 23 | 64 | – | – |
| CC(C)(C)c1nc(-c2cccc(NS(=O)(=O)c3c(F)cccc3F)c2F)c(-c2ccnc(N)n2)s1 [Dabrafenib] | > 10 | > 10 | – | > 10 | – | – | – | – |
| COC(=O)/C=C/c1cccc(N(Cc2ccc(-c3ccc(N(C)C)cc3)cc2)C(=O)C2CCCCC2)c1 [Feraxamine] | > 10 | > 10 | – | > 10 | – | – | – | – |
| Cc1cc(C)c(S(=O)(=O)N(Cc2ccc(-c3cccc(S(C)(=O)=O)c3)cc2)Cc2ccc(C(F)(F)F)o2)c(C)c1 [GSK2033] | > 10 | 0.556 ± 0.024 | – | > 10 | – | – | 21 | – |
| O=C(Nc1ccc(C(O)(C(F)(F)F)C(F)(F)F)cc1)c1ccccc1Cl [SR0987] | > 10 | > 10 | – | – | – | – | – | – |
| O=C(Nc1ccc(C(O)(C(F)(F)F)C(F)(F)F)cc1)c1ccc(C(F)(F)F)cc1 [SR1078] | > 10 | > 10 | – | 2.09 ± 0.131 | – | – | – | 75 |
| CCOC(=O)c1ccc(CN(Cc2ccc(-c3cccc(S(C)(=O)=O)c3)cc2)S(=O)(=O)c2c(C)cc(C)cc2C)o1 [SR9238] | > 10 | > 10 | – | > 10 | – | – | 77 | – |
| Fc1ccc(-c2c3cccc(C(F)(F)F)c3nn2Cc2ccc(F)cc2Cl)cc1 [WAY252623] | > 10 | > 10 | – | > 10 | – | – | – | – |
| SPA70 | > 10 | > 10 | – | > 10 | – | – | – | – |

The next lines start with results.

| EC50 [1] [µM] | IC50 ([2]; tested alone, NE = No effect) [µM] | CAR WT % min act [2, 4] [%] | EC50 [3] [µM] | Emax at 10 µM ([1]; HG5LN, read-out: CAR (APYLT) % max act) [%] | remaining activity at 10 µM [2, 4] [%] | Molecule | remaining activity at 10 µM [2] [%] | RORγ (SR2211 1 mM) % max act ([3]; 100% = constitutive activity, DMSO 56 ± 5, at 10^-5 M (10^-6 M *, 3 10^-6 M **)) [%] |
| --- | --- | --- | --- | --- | --- | --- | --- | --- |
| > 10 | > 10 | – | > 10 | – | – | COc1cccc(Cn2cc(C(=O)Nc3ccc(C)c(S(=O)(=O)N4CCOCC4)c3)c(-c3ccc(C)cc3)n2)c1 [DY268] | – | – |
| > 10 | > 10 | – | > 10 | – | – | O=C(O)Cc1cccc(OCCCN(Cc2cccc(C(F)(F)F)c2Cl)CC(c2ccccc2)c2ccccc2)c1 [GW3965] | – | – |
| > 10 | > 10 | – | > 10 | – | – | CC(C)c1onc(-c2c(Cl)cccc2Cl)c1COc1ccc(/C=C/c2cccc(C(=O)O)c2)c(Cl)c1 [GW4064] | – | – |
| > 10 | 1.06 ± 0.063 | 21 | > 10 | – | – | Cc1oc2ccccc2c1CNC(=O)NCc1cccs1 [S07662] | – | – |
| > 10 | > 10 | – | – | – | – | CC(=O)Nc1nc(C)c(S(=O)(=O)Nc2ccc(C(O)(C(F)(F)F)C(F)(F)F)cc2)s1 [SR1001] | – | – |
| > 10 | 8.75 ± 3.69 | – | > 10 | – | 65 | Cc1cc(C)c(S(=O)(=O)N(CCc2cccc(Br)c2)Cc2ccc(-c3cccc(S(C)(=O)=O)c3)cc2)c(C)c1 [SR9243] | – | – |
| > 10 | > 10 | – | > 10 | – | – | CCOP(=O)(OCC)C(=Cc1cc(C(C)(C)C)c(O)c(C(C)(C)C)c1)P(=O)(OCC)OCC [SR12813] | – | – |
